In patent US20210113617A1, “METHODS AND COMPOSITIONS FOR TH9 CELL MEDIATED CANCER TREATMENT” (Wake Forest University Health Sciences, priority 2018, published 2021):

How the values were obtained:
[1] = tested on: OT-II-Th9 cells; assay: QNZ on restimulated OT-II-Th9 cells (CFSE dilution, cell yield, Annexin V/PI); assay type: cell-based, mice
Experimental: (§1) CFSE labeling and cytotoxicity assay. In some experiments, Th cells were incubated for 5 minutes at 37° C. with 1 μM CFSE in PBS, and then washed extensively. We measured proliferation of T cells by the relative CFSE dilution method after stimulation or transfer into tumor-bearing mice. In the cytotoxicity assay, B16-OVA target cells or B16 non-target cells for OT-II T cells were labeled with 5 μM CFSE. B16-OVA target cells or B16 non-target control cells were incubated alone in triplicate with the OT-II T cells at a 1:10 effector-to-target ratio. For TRP-1 T cells, B16 target cells or MC38 non-target control cells were used. After 18 hours, CFSE^+ tumor cells from each target and control well were stained using FVD and analyzed by FACS. FVD^+ tumor cells were considered as dead cells. The percent specific lysis was calculated as (FVD^+ target−FVD^+ control)×100%.
(§2) Moreover, we further confirmed the increased proliferative capacity of Th9 cells by CFSE-dilution assay and by calculating the cell yields after the first-round activation and the subsequent reactivation (FIGS. 5G-5H).

[2] = tested on: OT-II-Th17 cells; assay: QNZ on restimulated OT-II-Th17 cells (CFSE dilution); assay type: cell-based, mice; conditions: restimulated with antigen-pulsed APCs for 2 days in presence of QNZ
Experimental: as §1, §2

Structure (SMILES): Nc1ccc2ncnc(NCCc3ccc(Oc4ccccc4)cc3)c2c1 [QNZ]
- Th9 hyperproliferation ([1]; restimulated with OT-II peptide-pulsed APCs in presence of QNZ for 48 hours): significantly arrested Th9 hyperproliferation
- Th9 cell apoptosis ([1]; restimulated with antigen-pulsed APCs for 2 days in presence of QNZ): did not induce Th9 cell apoptosis
- proliferation of Th17 [2]: minimal effect
